Measured values reported in ChEMBL document CHEMBL5346863, “Discovery of substituted benzyloxy-benzylamine inhibitors of acetyltransferase Eis and their anti-mycobacterial activity” (Eur J Med Chem, 2022).
Converted amounts (≈) assume the structure as drawn. The source made the active and inactive calls. No cut-off for these calls is given here.

Experiments:
[1] = molecular target: T1, N-acetyltransferase Eis (Mycobacterium tuberculosis (strain ATCC 25618 / H37Rv), UniProt P9WFK7); test: Inhibition of wild-type Mycobacterium tuberculosis Eis expressed in Escherichia coli BL21(DE3) cells incubated for 5 mins by Ellman's method
T1 sequence (P9WFK7 whole entry): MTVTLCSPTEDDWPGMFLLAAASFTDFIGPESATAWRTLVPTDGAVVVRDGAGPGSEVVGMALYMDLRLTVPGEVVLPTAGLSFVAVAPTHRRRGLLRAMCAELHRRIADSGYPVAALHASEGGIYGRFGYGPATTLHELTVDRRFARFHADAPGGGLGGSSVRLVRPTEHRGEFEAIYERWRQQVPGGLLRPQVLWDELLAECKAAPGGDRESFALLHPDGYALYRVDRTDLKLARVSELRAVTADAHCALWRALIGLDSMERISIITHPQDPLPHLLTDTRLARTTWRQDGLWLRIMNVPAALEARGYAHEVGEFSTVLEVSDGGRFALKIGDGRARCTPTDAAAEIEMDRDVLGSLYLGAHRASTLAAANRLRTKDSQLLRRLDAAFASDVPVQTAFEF

[2] = tested on: Mycolicibacterium smegmatis; test: Antibacterial activity against Mycobacterium smegmatis mc2 122 assessed as bacterial growth inhibition incubated for 2 to 3 weeks by resazurin dye based assay; assay type: functional; settings: time 2-3 weeks
[3] = tested on: Mycobacterium parascrofulaceum; test: Antibacterial activity against Mycobacterium parascrofulaceum ATCC BAA-614 assessed as bacterial growth inhibition incubated for 2 to 3 weeks by resazurin dye based assay; assay type: functional; settings: time 2-3 weeks
[4] = tested on: Mycobacterium tuberculosis; test: Antibacterial activity against Mycobacterium tuberculosis H37Ra assessed as bacterial growth inhibition incubated 2 to 3 weeks by resazurin dye based assay; assay type: functional; settings: time 2-3 weeks
[5] = tested on: Mycobacteroides abscessus; test: Antibacterial activity against Mycobacterium abscessus ATCC 19977 assessed as bacterial growth inhibition incubated for 2 to 3 weeks by resazurin dye based assay; assay type: functional; settings: time 2-3 weeks
[6] = tested on: Mycobacterium tuberculosis; test: Antibacterial activity against Mycobacterium tuberculosis mc2 6230 assessed as bacterial growth inhibition incubated 2 to 3 weeks by resazurin dye based assay; assay type: functional; settings: time 2-3 weeks
[7] = tested on: Mycobacterium intracellulare; test: Antibacterial activity against Mycobacterium intracellulare ATCC 13950 assessed as bacterial growth inhibition incubated for 2 to 3 weeks by resazurin dye based assay; assay type: functional; settings: time 2-3 weeks
[8] = tested on: Mycobacterium avium; test: Antibacterial activity against Mycobacterium avium ATCC 25291 assessed as bacterial growth inhibition incubated for 2 to 3 weeks by resazurin dye based assay; assay type: functional; settings: time 2-3 weeks
[9] = tested on: Mycobacterium tuberculosis; test: Antibacterial activity against Mycobacterium tuberculosis H37Rv assessed as MIC of kanamycin A at 100 uM incubated for 24 hrs followed by kanamycin A addition measured after 6 days by alamarblue dye based assay; assay type: functional; settings: for Activity: time 7.0 day; for MIC: 168 h, time 7 day
[10] = tested on: J774.1; test: Cytotoxicity against mouse J774.1 cells upto 12.5 uM incubated for 24 hrs by resazurin dye based cell viability assay; assay type: toxicity; settings: j774.1, 24 h
[11] = tested on: HEK293; test: Cytotoxicity against HEK293 cells upto 12.5 uM incubated for 24 hrs by resazurin dye based cell viability assay; assay type: toxicity; settings: human, hek293, 24 h
[12] = tested on: A549; test: Cytotoxicity against human A549 cells upto 12.5 uM incubated for 24 hrs by resazurin dye based cell viability assay; assay type: toxicity; settings: a549, 24 h

Compound | IC50 [1] | MIC [2] | MIC [3] | MIC [4] | MIC [5] | MIC [6] | MIC [7] | MIC [8] | Activity [9] | Activity [10] | Activity [11] | Activity [12] | MIC [9]
Brc1ccc(COc2ccc(CNCc3ccccc3)cc2)cc1 | 1.5 µM | 7.8 µM (≈ 2.98 µg/mL) | 7.8 µM (≈ 2.98 µg/mL) | 7.8 µM (≈ 2.98 µg/mL) | 15.6 µM (≈ 5.96 µg/mL) | 12.5 µM (≈ 4.78 µg/mL) | 15.6 µM (≈ 5.96 µg/mL) | 62.5 µM (≈ 23.9 µg/mL) |  |  |  |  | 
Fc1ccc(COc2ccccc2CNCc2ccccc2)cc1 | ~8 µM | > 62.5 µM | 31.3 µM (≈ 10.1 µg/mL) | 31.3 µM (≈ 10.1 µg/mL) | 31.3 µM (≈ 10.1 µg/mL) | 50 µM (≈ 16.1 µg/mL) | 31.3 µM (≈ 10.1 µg/mL) | > 62.5 µM | Active | Non-Toxic | Non-Toxic | Non-Toxic | 
Clc1cccc(COc2ccccc2CNCc2ccccc2)c1 | 6.5 µM | 62.5 µM (≈ 21.1 µg/mL) |  | 31.3 µM (≈ 10.6 µg/mL) | 31.3 µM (≈ 10.6 µg/mL) | 50 µM (≈ 16.9 µg/mL) |  | > 62.5 µM | Active | Non-Toxic | Non-Toxic | Non-Toxic | 
c1ccc(COc2ccccc2CNCc2cccnc2)cc1 | ~50 µM | > 62.5 µM | > 62.5 µM | > 250 µM | > 62.5 µM | > 100 µM | > 62.5 µM | > 62.5 µM |  |  |  |  | 2.5 µg/mL
CC(C)c1ccc(COc2ccc(CNCc3ccccc3)cc2)cc1 | 1.4 µM | 3.9 µM (≈ 1.35 µg/mL) |  | ≤ 0.5 µM | 7.8 µM (≈ 2.69 µg/mL) | 0.78 µM (≈ 0.269 µg/mL) | 2 µM (≈ 0.691 µg/mL) | 15.6 µM (≈ 5.39 µg/mL) |  |  |  |  | 
Fc1ccc(COc2cccc(CNCc3ccccc3)c2)cc1 | 7.3 µM |  |  | 3.9 µM (≈ 1.25 µg/mL) | 31.3 µM (≈ 10.1 µg/mL) | 50 µM (≈ 16.1 µg/mL) |  | 15.6 µM (≈ 5.01 µg/mL) |  |  |  |  | 
Clc1ccc(COc2ccccc2CNCc2ccccc2)cc1 | 5.4 µM | 31.3 µM (≈ 10.6 µg/mL) | 31.3 µM (≈ 10.6 µg/mL) | 31.3 µM (≈ 10.6 µg/mL) |  | 50 µM (≈ 16.9 µg/mL) | 31.3 µM (≈ 10.6 µg/mL) | > 62.5 µM | Active | Non-Toxic | Non-Toxic | Non-Toxic | 
Clc1ccc(COc2cccc(CNCc3ccccc3)c2)cc1 | 5.4 µM |  |  | 15.6 µM (≈ 5.27 µg/mL) | 31.3 µM (≈ 10.6 µg/mL) | 12.5 µM (≈ 4.22 µg/mL) |  |  |  |  |  |  | 
c1ccc(CNCc2ccccc2OCc2ccccc2)cc1 | ~15 µM | > 62.5 µM | 15.6 µM (≈ 4.73 µg/mL) |  |  | 100 µM (≈ 30.3 µg/mL) | 31.3 µM (≈ 9.5 µg/mL) | > 62.5 µM | Active |  |  |  | 
Fc1ccc(COc2cccc(CNCc3ccncc3)c2)cc1 | 14 µM | > 62.5 µM | > 62.5 µM | 31.3 µM (≈ 10.1 µg/mL) | > 62.5 µM | 100 µM (≈ 32.2 µg/mL) | > 62.5 µM | > 62.5 µM | Active |  |  |  | 
CC(C)(C)c1ccc(COc2ccc(CNCc3ccccc3)cc2)cc1 | > 200 µM | 3.9 µM (≈ 1.4 µg/mL) |  | 1 µM (≈ 0.36 µg/mL) | 7.8 µM (≈ 2.8 µg/mL) | 12.5 µM (≈ 4.49 µg/mL) |  | 31.3 µM (≈ 11.3 µg/mL) |  |  |  |  | 
c1ccc(COc2ccccc2CNCc2ccncc2)cc1 | ~40 µM | > 62.5 µM | 62.5 µM (≈ 19 µg/mL) | 125 µM (≈ 38 µg/mL) | > 62.5 µM | > 100 µM | > 62.5 µM | > 62.5 µM |  |  |  |  | 2.5 µg/mL
c1ccc(CNCc2ccc(OCc3ccccc3)cc2)cc1 | > 200 µM |  | 3.9 µM (≈ 1.18 µg/mL) | 62.5 µM (≈ 19 µg/mL) | > 62.5 µM | 100 µM (≈ 30.3 µg/mL) | 15.6 µM (≈ 4.73 µg/mL) | 62.5 µM (≈ 19 µg/mL) |  |  |  |  | 
Brc1ccc(COc2ccccc2CNCc2ccncc2)cc1 | 4.3 µM | > 62.5 µM |  |  | > 62.5 µM | 25 µM (≈ 9.58 µg/mL) |  | > 62.5 µM |  |  |  |  | ≤ 1.25 µg/mL
COc1ccc(COc2ccc(CNCc3ccccc3)cc2)cc1 | 12 µM | 62.5 µM (≈ 20.8 µg/mL) |  | 3.9 µM (≈ 1.3 µg/mL) | 31.3 µM (≈ 10.4 µg/mL) | 12.5 µM (≈ 4.17 µg/mL) |  | 31.3 µM (≈ 10.4 µg/mL) |  |  |  |  | 
NNC(=O)c1ccncc1 [ISONIAZID] |  | 3.9 µM (≈ 0.535 µg/mL) | 7.8 µM (≈ 1.07 µg/mL) |  | > 31.3 µM |  | 3.9 µM (≈ 0.535 µg/mL) | > 31.3 µM |  |  |  |  | 
c1ccc(COc2ccc(CNCc3ccncc3)cc2)cc1 | ~40 µM | > 62.5 µM |  | > 62.5 µM | > 62.5 µM | 50 µM (≈ 15.2 µg/mL) | 62.5 µM (≈ 19 µg/mL) | 2 µM (≈ 0.609 µg/mL) |  |  |  |  | 
NCC[C@H](O)C(=O)N[C@@H]1C[C@H](N)[C@@H](O[C@H]2O[C@H](CN)[C@@H](O)[C@H](O)[C@H]2O)[C@H](O)[C@H]1O[C@H]1O[C@H](CO)[C@@H](O)[C@H](N)[C@H]1O [AMIKACIN] |  | ≤ 0.25 µM | 0.25 µM (≈ 0.146 µg/mL) |  | 1 µM (≈ 0.586 µg/mL) |  | ≤ 0.25 µM | 3.9 µM (≈ 2.28 µg/mL) |  |  |  |  | 
Fc1ccc(COc2ccc(CNCc3ccccc3)cc2)cc1 | > 200 µM | > 62.5 µM | > 62.5 µM | > 250 µM | > 62.5 µM | > 100 µM | > 62.5 µM | > 62.5 µM |  |  |  |  | 
Cc1ccc(COc2ccc(CNCc3ccccc3)cc2)cc1 | > 200 µM | 1 µM (≈ 0.317 µg/mL) | 15.6 µM (≈ 4.95 µg/mL) | 15.6 µM (≈ 4.95 µg/mL) | 31.3 µM (≈ 9.94 µg/mL) | 1.56 µM (≈ 0.495 µg/mL) | 15.6 µM (≈ 4.95 µg/mL) | 15.6 µM (≈ 4.95 µg/mL) |  |  |  |  | 
Brc1ccccc1COc1ccc(CNCc2ccccc2)cc1 | ~8 µM | 1 µM (≈ 0.382 µg/mL) | 3.9 µM (≈ 1.49 µg/mL) | 3.9 µM (≈ 1.49 µg/mL) | 31.3 µM (≈ 12 µg/mL) | 100 µM (≈ 38.2 µg/mL) | 3.9 µM (≈ 1.49 µg/mL) | 15.6 µM (≈ 5.96 µg/mL) |  |  |  |  | 
Fc1ccc(COc2cccc(CNCc3cccnc3)c2)cc1 | 6.4 µM | > 62.5 µM | > 62.5 µM | 62.5 µM (≈ 20.1 µg/mL) | > 62.5 µM | 100 µM (≈ 32.2 µg/mL) | > 62.5 µM | > 62.5 µM |  |  |  |  | ≤ 1.25 µg/mL
c1ccc(CNCc2ccc(OCc3ccc(-c4ccccc4)cc3)cc2)cc1 | > 200 µM |  | 15.6 µM (≈ 5.92 µg/mL) | 2 µM (≈ 0.759 µg/mL) | 7.8 µM (≈ 2.96 µg/mL) | 12.5 µM (≈ 4.74 µg/mL) | 7.8 µM (≈ 2.96 µg/mL) | > 62.5 µM |  |  |  |  | 
c1ccc(COc2ccc(CNCc3cccnc3)cc2)cc1 | ~40 µM | > 62.5 µM |  | 31.3 µM (≈ 9.53 µg/mL) | > 62.5 µM | 100 µM (≈ 30.4 µg/mL) | 31.3 µM (≈ 9.53 µg/mL) | 31.3 µM (≈ 9.53 µg/mL) |  |  |  |  | 
